In patent publication US12428417B2, “Inhibitors of macrophage migration inhibitory factor” (The Brigham and Women's Hospital, Inc., priority 2019, dated 2025):

Key:
[1] = system: P. falciparum strain NF54 attB parasites; test: Invasion assay: synchronized late-stage schizonts added to uninfected RBCs, parasitemia measured by FACS; format: cell-based
Procedure: Experimental protocol: Synchronized late-stage schizonts were added at 1% initial parasitemia to uninfected recipient normal RBCs and parasitemia was measured by FACS. Parasitemia is normalized to the control no-inhibitor condition. Data analyzed by one-way ANOVA. Statistically significant differences are indicated with a star over the bar. Asterisk (*) indicates p<0.01 compared to control (no-inhibitor).
FIG. 2 describes results of invasion assay in presence of titrated amounts of MIF inhibitors. […] All data is normalized to the control no-inhibitor condition. […] Asterisk (*) indicates p<0.01 compared to control (no-inhibitor).
(§1) P. falciparum strain NF54 attB parasites (Dr. Niles, MIT). Synchronized late-stage schizonts were added at 1% initial parasitemia to uninfected recipient normal RBCs and parasitemia was measured by FACS (FIG. 2). […] Given that ibudilast has inhibitory effect on the function of MIF as well as phosphodiesterase 4 (PDE4) in the RBC, it was evaluated whether specific inhibitors of MIF and PDE4 would cause major decline in parasitemia at similar dosages. While inhibition of parasite growth was not observed due to abolishing the function of PDE4 (data not shown), inhibition of the tautomerase activity of MIF in vitro by an irreversible inhibitor of MIF—4-IPP—caused a significant decline in the levels of parasitemia (FIG. 2).

[2] = system: P. falciparum infected RBC cultures; test: FACS analysis of infected RBC cultures (schizont stage); format: cell-based; conditions: 48 to 60 hours post infection; data not shown
Procedure: as §1

[3] = system: Pf-infected RBCs; test: Confocal microscopy of Pf-infected RBCs with BODIPY TR lipophilic intracellular staining (egress); format: cell-based, P. falciparum; conditions: treated Pf-infected RBCs; FIG. 3
Excerpt: One plane of confocal microscopy z-stack is shown.

COC(=O)CC1CC(c2ccc(O)cc2)=NO1 (stereo not shown) [ISO-1]
invasion at a range of concentrations ([1]; data not shown): did not reduce the invasion

Ic1cc(-c2ccccc2)ncn1 [Example 4-IPP]
parasitemia in vitro ([1]; 1% initial parasitemia, normal RBCs, FIG. 2): significantly lowered parasitemia | parasitemia after removal of inhibitor 6 h post-infection ([1]; inhibitor removed 6 h post-infection): did not recover the parasitemia | parasitemia after treating only the recipient RBCs before infection ([1]; recipient RBCs treated 3 h and 6 h, inhibitor washed off before infection): parasitemia at the level of the control condition | percentage of mature schizont [2]: significant increase | state of mature schizonts (egress) [3]: mature schizonts remain encapsulated

B1: hu-MIF: exogenous human macrophage migration inhibitory factor added in the invasion assay (protein, UniProt P14174 2-115, looked up)
Macrophage migration …: PMFIVNTNVPRASVPDGFLSELTQQLAQATGKPPQYIAVHVVPDQLMAFGGSSEPCALCSLHSIGKIGGAQNRSYSKLLCGLLAERLRISPDRVYINYYDMNAANVGWNNSTFA
parasitemia in presence of exogenous protein ([1]; cells preincubated for up to 6 h, data not shown): did not show reduced or increased parasitemia
